From patent US6903130B1, “Pyrrolidineacetamide derivative alone or in combination for treatment of cns disorders” (UCB S.A., priority 1999, dated 2005)
Marks after values point to notes of the source that are not given here.

Tests used:
[1] = test system: diabetic rats (streptozocin-induced diabetic neuropathy); assay: Randall and Selitto test, mechanical hyperalgesia in streptozotocin diabetic rats; type: in vivo, rat
Excerpt: In order to study the activity of levetiracetam with respect to chronic or neuropathic pain, the Applicant carried out a series of experiments based on the Randall test “A method for measurement of analgesic activity on inflamed tissue; Arch. Int. pharmacodyn., 1957, CXI, No4. P 409-419”. By virtue of this protocol, it was possible to determine the ability of levetiracetam to correct hyperalgesia secondary to induction of a neuropathic problem of metabolic origin in a rodent.
The diabetic neuropathy thereby induced allowed the correction of the hyperalgesia caused by the use of levetiracetam to be measured.
The animals used for these experiments were male Sprague-Dawley rats (Charles River, France), weighing 250-280 grams (g), which had undergone induction of diabetes one week after receipt. Male Sprague-Dawley rats (200-220 g) received one interperitoneal injection of streptozocin (75 mg/kg, i.p.) (Zanosar, Upjohn, France) dissolved in distilled water. Hyperglycaemia was confirmed one week after induction by determining the quantity of blood glucose (caudal puncture) using a Dextrostix reactive strip (Ames) read using a calorimeter (Ames Division, Miles Laboratoires, France). Animals with more than 14 millimoles (mM) were considered to be diabetic. The pain thresholds were determined 3 weeks after induction of diabetes.
This model was used in accordance with the description in COURTEIX et al., “Streptozocin-induced diabetic rats. Behavioural evidence for a model of chronic pain” Pain (1993), vol. 53, p81-88. The study was performed using the following compounds: • […]: (Laboratories UCB), dissolved in distilled water. • CARBAMAZEPINE: (Sigma), dissolved in hydroxy propel methylcellulose.
As has already been mentioned above, the test explained below was performed to stimulate a reaction in the animal with a mechanical nociceptive stimulus to a hind paw. An increasing pressure was applied using an analgesia meter (Ugo Basile, type 7200), until a cry was emitted which was considered to be the pain threshold, expressed in grams.
After determining the base thresholds, the animals received the study treatments (vehicle, levetiracetam, 17, 54, 95.2 and 120 mg/kg, carbamazepine, 10 and 30 mg/kg) administered intraperitoneally (i.p.) using the equal block method to avoid any chronobiological influence. The effects of different treatments were thus determined during the same time period. The reaction thresholds were measured 15, 30, 45, 60, 90, 120 and 180 minutes (min) after administration. All of the experiments were performed blind with 8 different animals per treatment.
The results are expressed as means±standard error of mean (S.E.M.).
The dose which could overcome 50% of the hyperalgesia induced by diabetes was calculated as the “anti-hyperalgesic dose effective 50”.
Statistical comparison was carried out by means of a two-way analysis of variance followed by Fischer's PLSD multiple comparison test to analyze the temporal effect.

epileptic patients = assay: Tolerability studies in epileptic patients; type: in vivo, human; settings: doses up to 4000 mg/day; preliminary data
[2] = test system: chloride fluxes induced by muscimol; settings: cited from earlier work
[3] = test system: GABA levels, GABA transaminase and glutamic decarboxylase; settings: mouse brain; cited from earlier work
[4] = test system: 55 different binding sites including different receptor systems, reuptake sites, second messenger systems and channel proteins; settings: in vitro; cited from earlier work
[5] = Plasma and brain levels after oral dosing in sound-sensitive mice; settings: male, genetically sound-sensitive, derived from a DBA strain, mouse, brain, po, 166.2 mg/kg
Procedure: Male genetically sound-sensitive mice (17-30 g; N=10), derived from a DBA strain originally selected by Dr Lehmann of the Laboratory of Acoustic Physiology (Paris) and bred in the UCB Pharma Sector husbandry unit since 1978, were submitted to the induction of audiogenic seizures. Levetiracetam (5.4 mg/kg) and sodium valproate (166.2 mg/kg) were administered orally, alone or in combination, 60 minutes before the induction of audiogenic seizures. For testing audiogenic seizure, the mice were placed in the cages, one mouse per cage, in the sound-attenuated chamber. After a period of habituation of 30 seconds, the acoustic stimulus (90 dB, 10-20 kHz) was delivered for 30 seconds via the loud speakers. During this interval, the mice were observed and the presence of the 3 phases of the seizure activity, namely wild running, clonic and tonic convulsions, was recorded.
In all animals, blood samples were collected immediately after the seizure test (I h after dosing) by cardiac puncture under light carbon dioxide anesthesia, into heparinised microtubes. […] Levetiracetam was measured in plasma and brain samples by validated gas chromatography assay with mass detection. With sodium valproate, fluorescence polarization immunoassays were used.
The mean value plus standard deviation was calculated for plasma and brain concentrations of valproate and levetiracetam, and for the brain/plasma ratio. […]

CC[C@@H](C(N)=O)N1CCCC1=O [Levetiracetam, (S)-(−)α-ethyl-2-oxo-1-pyrrolidineacetamide]
anti-hyperalgesic effective dose 50 ([1]; dose overcoming 50% of the hyperalgesia induced by diabetes, i.p.): 35.1 ± 1.8 mg/kg | Effect on diabetic hyperalgesia (in words) ([1]; i.p., diabetic rats): a dose of 120 mg/kg of levetiracetam caused complete correction of hyperalgesia | vocalization threshold ([1]; levetiracetam 17 mg/kg i.p. group, before diabetes (baseline), mean (SEM)): 282.2 (5.48) g | vocalization threshold ([1]; levetiracetam 17 mg/kg i.p., 15 min after injection): 211.9 (7.19)* g | vocalization threshold ([1]; levetiracetam 17 mg/kg i.p., 30 min after injection): 206.3 (10.12)* g | vocalization threshold ([1]; levetiracetam 17 mg/kg i.p., 45 min after injection): 193.1 (7.19) g | vocalization threshold ([1]; levetiracetam 17 mg/kg i.p., 60 min after injection): 185.6 (4.86) g | vocalization threshold ([1]; levetiracetam 17 mg/kg i.p., 90 min after injection): 178.1 (3.40) g | vocalization threshold ([1]; levetiracetam 17 mg/kg i.p., 120 min after injection): 180.0 (2.83) g | vocalization threshold ([1]; levetiracetam 17 mg/kg i.p., 180 min after injection): 176.3 (2.45) g | vocalization threshold ([1]; levetiracetam 17 mg/kg i.p., after diabetes, 0 min (base threshold)): 181.9 (3.09) g | vocalization threshold ([1]; levetiracetam 54 mg/kg i.p. group, before diabetes (baseline), mean (SEM)): 296.3 (10.12) g | vocalization threshold ([1]; levetiracetam 54 mg/kg i.p., 15 min after injection): 238.1 g | vocalization threshold ([1]; levetiracetam 54 mg/kg i.p., 30 min after injection): 243.8 (15.97)* g | vocalization threshold ([1]; levetiracetam 54 mg/kg i.p., 45 min after injection): 230.6 g | vocalization threshold ([1]; levetiracetam 54 mg/kg i.p., 60 min after injection): 189.4 (13.87) g | vocalization threshold ([1]; levetiracetam 54 mg/kg i.p., 90 min after injection): 176.3 (8.39) g | vocalization threshold ([1]; levetiracetam 54 mg/kg i.p., 120 min after injection): 176.3 (6.80) g | vocalization threshold ([1]; levetiracetam 54 mg/kg i.p., 180 min after injection): 176.3 (6.80) g | vocalization threshold ([1]; levetiracetam 54 mg/kg i.p., after diabetes, 0 min (base threshold)): 180.0 (5.30) g | vocalization threshold ([1]; levetiracetam 95.2 mg/kg i.p. group, before diabetes (baseline), mean (SEM)): 306.6 (11.73) g | vocalization threshold ([1]; levetiracetam 95.2 mg/kg i.p., 15 min after injection): 264.4 g | vocalization threshold ([1]; levetiracetam 95.2 mg/kg i.p., 30 min after injection): 283.1 (24.62)* g | vocalization threshold ([1]; levetiracetam 95.2 mg/kg i.p., 45 min after injection): 234.4 g | vocalization threshold ([1]; levetiracetam 95.2 mg/kg i.p., 60 min after injection): 180.0 (12.36) g | vocalization threshold ([1]; levetiracetam 95.2 mg/kg i.p., 90 min after injection): 180.0 (8.02) g | vocalization threshold ([1]; levetiracetam 95.2 mg/kg i.p., 120 min after injection): 159.4 (3.95) g | vocalization threshold ([1]; levetiracetam 95.2 mg/kg i.p., 180 min after injection): 163.1 (4.43) g | vocalization threshold ([1]; levetiracetam 95.2 mg/kg i.p., after diabetes, 0 min (base threshold)): 169.7 (6.00) g | vocalization threshold ([1]; levetiracetam 120 mg/kg i.p. group, before diabetes (baseline), mean (SEM)): 309.4 (15.25) g | vocalization threshold ([1]; levetiracetam 120 mg/kg i.p., 15 min after injection): 331.9 g | vocalization threshold ([1]; levetiracetam 120 mg/kg i.p., 30 min after injection): 315.0 (30.00)* g | vocalization threshold ([1]; levetiracetam 120 mg/kg i.p., 45 min after injection): 262.5 g | vocalization threshold ([1]; levetiracetam 120 mg/kg i.p., 60 min after injection): 213.8 (13.52)* g | vocalization threshold ([1]; levetiracetam 120 mg/kg i.p., 90 min after injection): 176.3 (7.36) g | vocalization threshold ([1]; levetiracetam 120 mg/kg i.p., 120 min after injection): 174.4 (6.30) g | vocalization threshold ([1]; levetiracetam 120 mg/kg i.p., 180 min after injection): 168.8 (4.70) g | vocalization threshold ([1]; levetiracetam 120 mg/kg i.p., after diabetes, 0 min (base threshold)): 161.3 (7.23) g | tolerability (in words) (epileptic patients): good tolerability | modulation of chloride fluxes induced by muscimol [2]: did not modulate | effect on GABA levels and the enzymatic activities of GABA transaminase and glutamic decarboxylase [3]: lack of effect | displacement of ligands specific for 55 different binding sites [4]: not revealed any significant displacement

CCCC(CCC)C(=O)[O-].[Na+] [Valproate, sodium valproate]
Kp at 1 h [5]: 0.13 ± 0.02
